From US10299478B2, “Pyrazolyltriazolylpyridines as pesticides” (BAYER ANIMAL HEALTH GMBH, priority 2014, dated 2019)

Columns and labels:
Format in all cases: in vivo
[1] = system: larvae of the mustard beetle (Phaedon cochleariae); assay: Phaedon cochleariae spray test; settings: application rate 100 g/ha; Chinese cabbage leaf discs sprayed; after 7 days
Description: Phaedon cochleariae-Spray Test
(§1) • Solvent: 78.0 parts by weight of acetone • 1.5 parts by weight of dimethylformamide • Emulsifier: alkylaryl polyglycol ether
(§2) To produce an appropriate active ingredient formulation, 1 part by weight of active ingredient is dissolved using the specified parts by weight of solvent and made up with water containing an emulsifier concentration of 1000 ppm until the desired concentration is attained. To produce further test concentrations, the preparation is diluted with emulsifier-containing water.
Discs of Chinese cabbage leaves (Brassica pekinensis) are sprayed with an active ingredient formulation of the desired concentration and, after drying, populated with larvae of the mustard beetle (Phaedon cochleariae).
After 7 days, efficacy in % is determined. 100% means that all the beetle larvae have been killed; 0% means that no beetle larvae have been killed.

[2] = system: Tick nymphs (Amblyomma hebraeum); assay: Amblyomma hebaraeum test; settings: application rate 100 ppm; nymphs immersed for one minute; after 42 days
Description: (§3) • Solvent: dimethyl sulphoxide
(§4) To produce an appropriate active ingredient formulation, 10 mg of active ingredient are mixed with 0.5 ml of dimethyl sulphoxide, and the concentrate is diluted with water to the desired concentration.
Tick nymphs (Amblyomma hebraeum) are placed into perforated plastic beakers and immersed in the desired concentration for one minute. The ticks are transferred on filter paper into a Petri dish and stored in a climate-controlled cabinet.
After 42 days, the kill in % is determined. 100% means that all of the ticks have been killed; 0% means that none of the ticks have been killed.

[3] = system: engorged adult female cattle ticks (Boophilus microplus); assay: Boophilus microplus injection test; settings: application rate 20 μg/animal; injection into the abdomen; assessed after 7 days
Description: Boophilus microplus-Injection Test
as §3
To produce an appropriate active ingredient formulation, 10 mg of active ingredient are mixed with 0.5 ml of solvent and the concentrate is diluted with solvent to the desired concentration.
1 μl of the active ingredient solution is injected into the abdomen of 5 engorged adult female cattle ticks (Boophilus microplus). The animals are transferred into dishes and kept in a climate-controlled room.
(§5) Efficacy is assessed after 7 days by laying of fertile eggs. Eggs which are not visibly fertile are stored in a climate-controlled cabinet until the larvae hatch after about 42 days. An efficacy of 100% means that none of the ticks has laid any fertile eggs; 0% means that all the eggs are fertile.

[4] = system: cattle ticks (Boophilus microplus) Parkhurst strain, SP-resistant; assay: Boophilus microplus dip test; settings: application rate 100 ppm, assessed after 7 days
Description: Boophilus microplus-Dip Test
• Test animals: cattle ticks (Boophilus microplus) Parkhurst strain, SP-resistant • Solvent: dimethyl sulphoxide
10 mg of active ingredient are dissolved in 0.5 ml of dimethyl sulphoxide. For the purpose of producing a suitable formulation, the active compound solution is diluted with water to the concentration desired in each case.
This active ingredient formulation is pipetted into tubes. 8-10 engorged adult female cattle ticks (Boophilus microplus) are transferred into a further tube with holes. The tube is immersed into the active compound preparation, and all the ticks are completely wetted. After the liquid has run out, the ticks are transferred on filter discs into plastic dishes and stored in a climate-controlled room.
as §5

[5] = system: unfed adult cat fleas (Ctenocephalides felis); assay: Ctenocephalides felis oral test; settings: application rate 100 ppm, in citrated cattle blood, after 2 days
Description: Ctenocephalides felis-Oral Test
as §3
To produce a suitable preparation of active compound, 10 mg of active compound are mixed with 0.5 ml of dimethyl sulphoxide. Dilution with citrated cattle blood gives the desired concentration.
About 20 unfed adult cat fleas (Ctenocephalides felis) are placed into a chamber which is closed at the top and bottom with gauze. A metal cylinder whose bottom end is closed with parafilm is placed onto the chamber. The cylinder contains the blood/active compound preparation, which can be imbibed by the fleas through the parafilm membrane.
After 2 days, the kill in % is determined. 100% means that all of the fleas have been killed; 0% means that none of the fleas have been killed.

[6] = system: greenhouse red spider mite (Tetranychus urticae); assay: Tetranychus urticae spray test, OP-resistant; settings: application rate 100 g/ha; bean leaf discs sprayed; after 6 days
Description: Tetranychus urticae-Spray Test, OP-Resistant
as §1, §2
Discs of bean leaves (Phaseolus vulgaris) infested by all stages of the greenhouse red spider mite (Tetranychus urticae) are sprayed with an active ingredient formulation of the desired concentration.
After 6 days, efficacy in % is determined. 100% means that all the spider mites have been killed; 0% means that no spider mites have been killed.

[7] = system: adult dog ticks (Rhipicephalus sanguineus); assay: Rhipicephalus sanguineus in vitro contact test with adult brown dog ticks; settings: coated test tube, after 48 h
Description: Rhipicephalus sanguineus-In Vitro Contact Tests with Adult Brown Dog Ticks
For the coating of the test tubes, 9 mg of active compound are first dissolved in 1 ml of acetone p.a. and then diluted to the desired concentration with acetone p.a. 250 μl of the solution are distributed homogeneously on the inner walls and the base of a 25 ml test tube by turning and rocking on an orbital shaker (rocking rotation at 30 rpm for 2 h). With 900 ppm active compound solution and internal surface 44.7 cm^2, given homogeneous distribution, an area-based dose of 5 μg/cm^2 is achieved.
After the solvent has evaporated off, the tubes are populated with 5-10 adult dog ticks (Rhipicephalus sanguineus), sealed with a perforated plastic lid and incubated in a horizontal position in the dark at room temperature and ambient humidity. After 48 h, efficacy is determined. To this end, the ticks are knocked to the floor of the tube and incubated on a hotplate at 45-50° C. for not more than 5 min. Ticks which remain motionless on the floor or move in such an uncoordinated manner that they are unable to deliberately avoid the heat by climbing upwards are considered to be dead or moribund.
An efficacy of 100% means that all the ticks were dead or moribund. 0% efficacy means that none of the ticks had been harmed.

[8] = system: adult houseflies (Musca domestica); assay: Musca domestica test; settings: application rate 100 ppm; sponge with sugar solution; after 2 days
Description: as §3, §4
Vessels containing a sponge treated with sugar solution and the active ingredient formulation of the desired concentration are populated with 10 adult houseflies (Musca domestica).
After 2 days, the kill in % is determined. 100% means that all of the flies have been killed; 0% means that none of the flies have been killed.

[9] = system: green peach aphid (Myzus persicae); assay: Myzus persicae spray test; settings: application rate 100 g/ha; Chinese cabbage leaf discs sprayed; after 6 days
Description: Myzus persicae-Spray Test
• Solvent: 78 parts by weight of acetone • 1.5 parts by weight of dimethylformamide • Emulsifier: alkylaryl polyglycol ether
as §2
Discs of Chinese cabbage leaves (Brassica pekinensis) infested by all stages of the green peach aphid (Myzus persicae) are sprayed with an active compound preparation of the desired concentration.
After 6 days, efficacy in % is determined. 100% means that all the aphids have been killed; 0% means that no aphids have been killed.

[10] = system: L1 larvae of the Australian sheep blowfly (Lucilia cuprina); assay: Lucilia cuprina test; settings: application rate 100 ppm; minced horsemeat; after 2 days
Description: as §3, §4
About 20 L1 larvae of the Australian sheep blowfly (Lucilia cuprina) are transferred into a test vessel containing minced horsemeat and the active ingredient preparation of the desired concentration.
After 2 days, the kill in % is determined. 100% means that all the larvae have been killed; 0% means that no larvae have been killed.

[11] = system: caterpillars of the armyworm (Spodoptera frugiperda); assay: Spodoptera frugiperda spray test; settings: application rate 100 g/ha; maize leaf discs sprayed; after 7 days
Description: Spodoptera frugiperda-Spray Test
as §1, §2
Leaf discs of maize (Zea mays) are sprayed with an active ingredient formulation of the desired concentration and, after drying, populated with caterpillars of the armyworm (Spodoptera frugiperda).
After 7 days, efficacy in % is determined. 100% means that all the caterpillars have been killed; 0% means that no caterpillars have been killed.

[12] = system: adult cat fleas (Ctenocephalides felis); assay: Ctenocephalides felis in vitro contact test with adult cat fleas; settings: application rate 500 g/ha; coated test tube; after 48 h
Description: Ctenocephalides felis—In Vitro Contact Tests with Adult Cat Fleas
For the coating of the test tubes, 9 mg of active compound are first dissolved in 1 ml of acetone p.a. and then diluted to the desired concentration with acetone p.a. 250 μl of the solution are distributed homogeneously on the inner walls and the base of a 25 ml test tube by turning and rocking on an orbital shaker (rocking rotation at 30 rpm for 2 h). With 900 ppm active compound solution and internal surface 44.7 cm^2, given homogeneous distribution, an area-based dose of […] is achieved.
After the solvent has evaporated off, the tubes are populated with 5-10 adult cat fleas (Ctenocephalides felis), sealed with a perforated plastic lid and incubated in a horizontal position at room temperature and ambient humidity. After 48 h, efficacy is determined. To this end, the test tubes are stood upright and the fleas are knocked to the base of the tube. Fleas which remain motionless at the base or move in an uncoordinated manner are considered to be dead or moribund.
100% efficacy means that all the fleas were dead or moribund. 0% efficacy means that no fleas were harmed.

[13] = system: southern root-knot nematode (Meloidogyne incognita); assay: Meloidogyne incognita test; settings: application rate 20 ppm; lettuce in sand; after 14 days
Description: Meloidogyne incognita Test
• Solvent: 125.0 parts by weight of acetone
To produce an appropriate active ingredient formulation, 1 part by weight of active ingredient is mixed with the stated amount of solvent and the concentrate is diluted with water to the desired concentration.
Vessels are filled with sand, active ingredient solution, an egg/larvae suspension of the southern root-knot nematode (Meloidogyne incognita) and lettuce seeds. The lettuce seeds germinate and the plants develop. The galls develop on the roots.
After 14 days, the nematicidal efficacy in % is determined by the formation of galls. 100% means that no galls were found; 0% means that the number of galls on the treated plants corresponds to the untreated control.

SMILES	efficacy (beetle larvae killed) [1] [%]	efficacy (kill of ticks) [2] [%]	efficacy (laying of fertile eggs) [3] [%]	efficacy (laying of fertile eggs) [4] [%]	efficacy (kill of fleas) [5] [%]	efficacy (spider mites killed) [6] [%]	efficacy (ticks dead or moribund) ([7]; application rate 100 g/ha) [%]	efficacy (kill of flies) [8] [%]	efficacy (aphids killed) [9] [%]	efficacy (kill of larvae) [10] [%]	efficacy (caterpillars killed) [11] [%]	efficacy (fleas dead or moribund) [12] [%]	nematicidal efficacy (formation of galls) [13] [%]	efficacy (ticks dead or moribund) ([7]; application rate 20 g/ha) [%]
Cn1nc(C(F)(F)C(F)(F)F)c(C(F)(F)F)c1-n1cc(-c2cnc(Cl)c(C(=O)NC3(C#N)CC3)c2)nn1 [Ia-1]	100	100	100	100	100	90	100							
Cn1nc(C(F)(F)C(F)(F)F)c(C(F)(F)F)c1-n1cc(-c2cnc(Cl)c(C(=O)NC3CC3)c2)nn1 [Ia-2, 2-Chloro-N-cyclopropyl-5-[1-[2-methyl-5-(1,1,2,2,2-pentafluoroethyl)-4-(trifluoromethyl)pyrazol-3-yl]triazol-4-yl]pyridine-3-carboxamide]	100	100	100	100	100	100	100	100	90	100	100			
Cc1ncc(-c2cn(-c3c(C(F)(F)F)c(C(F)(F)C(F)(F)F)nn3C)nn2)cc1C(=O)NC1(C#N)CC1 [Ia-3]	100		100		100	100	100	80	100	95		100		
Cc1ncc(-c2cn(-c3c(C(F)(F)F)c(C(F)(F)C(F)(F)F)nn3C)nn2)cc1C(=O)NC1CC1 [Ia-4]	100	100	100	100	100	100	100	100	90	100	100	100	90	
COc1ncc(-c2cn(-c3c(C(F)(F)F)c(C(F)(F)C(F)(F)F)nn3C)nn2)cc1C(=O)NC1(C#N)CC1 [Ia-5]	100		100		100		100	100		100	100			
COc1ncc(-c2cn(-c3c(C(F)(F)F)c(C(F)(F)C(F)(F)F)nn3C)nn2)cc1C(=O)NC1CC1 [Ia-6]	100		100		100			100		100				80
